ChEMBL document CHEMBL3885881, “DrugMatrix”

Species on record: Rattus norvegicus
Assay: DrugMatrix - Regimen: Daily Repeat
Format: toxicity, organism-based, Sprague-Dawley
Parameters: regimen Daily Repeat, gender Male, age 6-8 weeks
Details: in vivo, po, route oral GAVAGE, vehicle 100 % WATER; for ABSOLUTE BASOPHIL / ABSOLUTE EOSINOPHIL / ABSOLUTE LYMPHOCYTE / ABSOLUTE MONOCYTE / ABSOLUTE SEGMENTED NEUTROPHIL / BASOPHIL / EOSINOPHIL / ERYTHROCYTE COUNT / HEMATOCRIT / HEMOGLOBIN / LEUKOCYTE COUNT / LYMPHOCYTE / MEAN CORPUSCULAR HEMOGLOBIN / MEAN CORPUSCULAR HEMOGLOBIN CONCENTRATION / MEAN CORPUSCULAR VOLUME / MONOCYTE / NEUTROPHIL / NUCLEATED RED BLOOD CELLS / PLATELET COUNT: tissue Blood; for ALANINE AMINOTRANSFERASE / ALBUMIN / ALKALINE PHOSPHATASE / ASPARTATE AMINOTRANSFERASE / BLOOD UREA NITROGEN / CARBON DIOXIDE / CHLORIDE / CHOLESTEROL / CREATINE PHOSPHOKINASE / CREATININE / GLUCOSE / LIPASE / PHOSPHORUS / POTASSIUM / SODIUM / TOTAL BILIRUBIN / TOTAL PROTEIN / URIC ACID: tissue Plasma
[1] = 0 mg/kg, 72 h, dose level Control, time 3 day
[2] = 0 mg/kg, 120 h, dose level Control, time 5 day
[3] = 175 mg/kg, 72 h, dose level High, time 3 day

## CC(C)NCC(O)COc1cccc2ccccc12 (stereo unspecified) [PROPRANOLOL]
[1]
  ABSOLUTE BASOPHIL: 0 CELLS/uL
  ABSOLUTE EOSINOPHIL: 46 CELLS/uL
  ABSOLUTE LYMPHOCYTE: 10225.67 CELLS/uL
  ABSOLUTE MONOCYTE: 319.33 CELLS/uL
  ABSOLUTE SEGMENTED NEUTROPHIL: 1242.33 CELLS/uL
  BASOPHIL: 0%
  EOSINOPHIL: 0.33%
  ERYTHROCYTE COUNT: 5.17 x10E6/uL
  HEMATOCRIT: 33.43%
  HEMOGLOBIN: 12.55 G/DL
  LEUKOCYTE COUNT: 11.83 x10E3/uL
  LYMPHOCYTE: 86.5%
  MEAN CORPUSCULAR HEMOGLOBIN: 24.35 pg
  MEAN CORPUSCULAR HEMOGLOBIN CONCENTRATION: 37.57 G/DL
  MEAN CORPUSCULAR VOLUME: 64.8 fL
  MONOCYTE: 2.67%
  NEUTROPHIL: 10.5%
  NUCLEATED RED BLOOD CELLS: 0.17 /100WBC
  PLATELET COUNT: 1026.17 x10E3/uL
  ALANINE AMINOTRANSFERASE: 52.67 u/L
  ALBUMIN: 4.17 G/DL
  ALKALINE PHOSPHATASE: 331 u/L
  ASPARTATE AMINOTRANSFERASE: 92.33 u/L
  BLOOD UREA NITROGEN: 15.33 mg/dL
  CARBON DIOXIDE: 26.17 mmol/L
  CHLORIDE: 103.17 MEQ/L
  CHOLESTEROL: 73.67 mg/dL
  CREATINE PHOSPHOKINASE: 472.83 u/L
  CREATININE: 0.29 mg/dL
  GLUCOSE: 178.5 mg/dL
  LIPASE: 10.67 u/L
  PHOSPHORUS: 12.45 mg/dL
  POTASSIUM: 6.35 MEQ/L
  SODIUM: 144.27 MEQ/L
  TOTAL BILIRUBIN: 0.13 mg/dL
  TOTAL PROTEIN: 5.77 G/DL
  URIC ACID: 2.08 mg/dL
[2]
  ABSOLUTE BASOPHIL: 0 CELLS/uL
  ABSOLUTE EOSINOPHIL: 23.5 CELLS/uL
  ABSOLUTE LYMPHOCYTE: 12797.33 CELLS/uL
  ABSOLUTE MONOCYTE: 465.5 CELLS/uL
  ABSOLUTE SEGMENTED NEUTROPHIL: 1313.67 CELLS/uL
  BASOPHIL: 0%
  EOSINOPHIL: 0.17%
  ERYTHROCYTE COUNT: 5.76 x10E6/uL
  HEMATOCRIT: 36.72%
  HEMOGLOBIN: 13.72 G/DL
  LEUKOCYTE COUNT: 14.6 x10E3/uL
  LYMPHOCYTE: 87.5%
  MEAN CORPUSCULAR HEMOGLOBIN: 23.8 pg
  MEAN CORPUSCULAR HEMOGLOBIN CONCENTRATION: 37.35 G/DL
  MEAN CORPUSCULAR VOLUME: 63.72 fL
  MONOCYTE: 3.17%
  NEUTROPHIL: 9.17%
  NUCLEATED RED BLOOD CELLS: 0.33 /100WBC
  PLATELET COUNT: 1270.67 x10E3/uL
  ALANINE AMINOTRANSFERASE: 50.5 u/L
  ALBUMIN: 4.32 G/DL
  ALKALINE PHOSPHATASE: 339.67 u/L
  ASPARTATE AMINOTRANSFERASE: 88 u/L
  BLOOD UREA NITROGEN: 17 mg/dL
  CARBON DIOXIDE: 25 mmol/L
  CHLORIDE: 103.83 MEQ/L
  CHOLESTEROL: 71.33 mg/dL
  CREATINE PHOSPHOKINASE: 281.83 u/L
  CREATININE: 0.26 mg/dL
  GLUCOSE: 161.67 mg/dL
  LIPASE: 10.17 u/L
  PHOSPHORUS: 11.72 mg/dL
  POTASSIUM: 6.76 MEQ/L
  SODIUM: 145.17 MEQ/L
  TOTAL BILIRUBIN: 0.2 mg/dL
  TOTAL PROTEIN: 6.15 G/DL
  URIC ACID: 2 mg/dL
[3]
  ABSOLUTE BASOPHIL: 0 CELLS/uL
  ABSOLUTE EOSINOPHIL: 124 CELLS/uL
  ABSOLUTE LYMPHOCYTE: 11451.33 CELLS/uL
  ABSOLUTE MONOCYTE: 0 CELLS/uL
  ABSOLUTE SEGMENTED NEUTROPHIL: 824.67 CELLS/uL
  BASOPHIL: 0%
  EOSINOPHIL: 1%
  ERYTHROCYTE COUNT: 5.24 x10E6/uL
  HEMATOCRIT: 34.07%
  HEMOGLOBIN: 12.73 G/DL
  LEUKOCYTE COUNT: 12.4 x10E3/uL
  LYMPHOCYTE: 92%
  MEAN CORPUSCULAR HEMOGLOBIN: 24.3 pg
  MEAN CORPUSCULAR HEMOGLOBIN CONCENTRATION: 37.37 G/DL
  MEAN CORPUSCULAR VOLUME: 65.07 fL
  MONOCYTE: 0%
  NEUTROPHIL: 7%
  NUCLEATED RED BLOOD CELLS: 0 /100WBC
  PLATELET COUNT: 1403.33 x10E3/uL
  ALANINE AMINOTRANSFERASE: 49 u/L
  ALBUMIN: 4.2 G/DL
  ALKALINE PHOSPHATASE: 411 u/L
  ASPARTATE AMINOTRANSFERASE: 73.33 u/L
  BLOOD UREA NITROGEN: 14.33 mg/dL
  CARBON DIOXIDE: 24 mmol/L
  CHLORIDE: 103 MEQ/L
  CHOLESTEROL: 75.33 mg/dL
  CREATINE PHOSPHOKINASE: 253.33 u/L
  CREATININE: 0.21 mg/dL
  GLUCOSE: 152.33 mg/dL
  LIPASE: 9 u/L
  PHOSPHORUS: 13.13 mg/dL
  POTASSIUM: 6.83 MEQ/L
  SODIUM: 143.67 MEQ/L
  TOTAL BILIRUBIN: 0.13 mg/dL
  TOTAL PROTEIN: 5.77 G/DL
  URIC ACID: 2.97 mg/dL
